Test results taken from patent publication US8759363B2, “Quinazoline-based T cell proliferation inhibitors” (Yissum Research Development Company of the Hebrew …, priority 2010, dated 2014).
Where two headings read alike, the source gives them in different places.

Columns and labels:
[1] = test system: PBMC depleted of CD3+ cells; test: Proliferation of PBMC depleted of CD3+ cells, BrdU; type: cell-based; conditions: Homo sapiens, stimulated by ODN2006 or LPS, stated as similar to ~0.5 μM, read-out: IC50 for PBMCs depleted of CD3+ cells
Protocol: (§1) Blood samples were taken from healthy donors and loaded on a Ficoll density gradient to purify the PBMC population. T cells were purified by human anti-CD3 using an autoMACS instrument (Miltenyi Biotec, Bergisch-Gladbach, Germany), according to the manufacturer's instructions. The identity of T cells was confirmed by flow cytometry, as they stained positive for CD3. Cells were stimulated with ConA (10 μg/ml), ODN2006 (0.5 μg/ml; Enzo Life Sciences), or LPS (50 μg/ml; Sigma-Aldrich, Steinheim, Germany), for 72 h in the presence of the inhibitor, and their proliferation was measured in the BrdU incorporation assay as will be later described.
(§2) Proliferation was assessed by BrdU incorporation using a colorimetric ELISA kit (Roche, Germany). Subsequent to labeling with 10 μM BrdU, DNA was denatured and the cells were incubated with anti-BrdU-POD, prior to the addition of colorimetric substrate (TMB). The reaction product was quantified by measuring absorbance at 450 nm in an ELISA plate reader (ELx800 BIO-TEK Instruments Inc.).
(§3) PBMC consist of a mixture of mononucleated cells, mostly T cells. To identify the cell type that was inhibited by 2, we first purified T cells from PBMC with an autoMACS apparatus (Miltenyi Biotec), using anti-CD3 antibodies. We were now able to compare three cell populations: total PBMC, CD3+ cells purified from PBMC, and PBMC that had been depleted of CD3+ cells. […]

[2] = test system: PC-3, HEK293, NIH-3T3, A375, MDA-MB-231; test: BrdU uptake by non-hematopoietic cell lines compared with PBMC and Jurkat; type: cell-based; conditions: stimulated and non-stimulated cells
Protocol: (§4) Cells were depleted of fetal calf serum (FCS) for 12 hours. They were then stimulated to proliferate by addition of ConA (10 μg/ml) for PBMC from healthy individuals and for Jurkat cells, FCS (10%) for HEK293 and A375 cells, PDGF (30 ng/ml) for NIH 3T3 cells, and EGF (30 ng/ml) for MDA-MB-231, Cells (1×10^5) were cultured in 96-well plates for 3 days in the presence or absence of inhibitors at the concentrations specified in the text. Each condition was tested in duplicate wells.
as §2
(§5) To characterize the mode of action of 2 (S101) in more detail, we first examined whether 2 inhibits non-hematopoietic cell lines. We studied the effect of 2 on the growth of four cell lines: NIH 3T3 (mouse embryonic fibroblasts), A-431 (human vulval carcinoma cells), MDA-MB-468 (human breast carcinoma cells), and PANC-1 (human pancreatic carcinoma cells) (FIGS. 1A-B). We also tested the inhibitors on human keratinocytes. […]

A375 = A375 proliferation, BrdU uptake; type: cell-based; conditions: Homo sapiens, A-375
Protocol: as §4, §2, §5

SLP-76 = SLP-76 tyrosine phosphorylation in Jurkat cells, immunoprecipitation and western blot; type: cell-based, human; conditions: Jurkat cells treated 16 h, up to 1 μM
Protocol: Jurkat cells were washed in PBS containing Ca^2+ and Mg^2+ (Biological Industries, Beit Haemek), preheated to 37° C. for 15 min, and were either mock stimulated with PBS, or were stimulated for 1 minute with C305 (1:500). Cells were then collected and lysed at a concentration of 2×10^7 cells/ml in cold lysis buffer containing 1% NP-40, 10 mM Tris (pH 7.8), 150 mM NaCl, 1 mM phenylmethylsulfonyl fluoride (PMSF), 2 μg/ml pepstatin A, 1 μg/ml leupeptin, 10 mM sodium pyrophosphate, 0.4 mM EDTA, 0.4 mM sodium orthovanadate, and 50 mM NaF, 50 mM beta-glycerol phosphate pH 7.5 and 20 mM sodium pyrophosphate pH 7.5. After 20 min at 4° C., the lysates were cleared by centrifugation in a microfuge (Eppendorf, centrifuge 5427R) at 16,000×g for 10 min at 4° C. The supernatants were used directly for immunoprecipitation.
Western blots were prepared on nitrocellulose using standard techniques. Membranes were blocked in TBST buffer (10 mM Tris-HCl, pH 7.4 (TBS), 0.2% Tween 20, 170 mM NaCl) containing 5% low-fat milk, then probed overnight with the appropriate primary antibody. […]
Jurkat cells were treated with 2 for 16 h, and SLP-76 phosphorylation was measured by immunoprecipitation of SLP-76 protein followed by western blotting with an antibody to the phosphorylated tyrosines of the protein (FIG. 6A). […]

CD3+ cells = test: Proliferation of CD3+ cells purified from PBMC, BrdU; type: cell-based; conditions: Homo sapiens, ConA-stimulated, slightly higher than, read-out: IC50 proliferation of isolated CD3+ cells
Protocol: as §1, §2, §3

PC3 = test: PC-3 proliferation, BrdU uptake; type: cell-based; conditions: Homo sapiens
HEK293 = HEK293 proliferation, BrdU uptake; type: cell-based; conditions: Homo sapiens
Protocol: as §4, §2, §5

Structure (SMILES): COc1cc(-c2nc(Nc3ccc(C)cc3)c3ccccc3n2)cc(OC)c1OC [Compound 2, N-p-tolyl-2-(3,4,5-trimethoxyphenyl)quinazolin-4-amine]
- IC50 [1]: ~500 nM
- IC50 values in various cells in comparison to IC50 for PBMC and Jurkat cells [2]: higher by two orders of magnitude
- IC50 (A375; A375, non-stimulated, read-out: IC50 of non-stimulated cells): ~800 nM
- IC50 (A375; A375, serum (FCS 10%) activated, read-out: IC50 of stimulated cells): > 10000 nM
- tyrosine phosphorylation of SLP-76 (SLP-76): reduced but not abolished
- IC50 (CD3+ cells): > 100 nM
- IC50 (PC3; PC3, non-stimulated, read-out: IC50 of non-stimulated cells): ~10 µM
- IC50 (PC3; PC3, stimulated, read-out: IC50 of stimulated cells): > 10 µM
- IC50 (HEK293; HEK293, non-stimulated, read-out: IC50 of non-stimulated cells): ~10 µM
- IC50 (HEK293; HEK293, serum (FCS 10%) activated, read-out: IC50 of stimulated cells): ~10 µM
